The results in this text go back to ChEMBL document CHEMBL1641396, “4-Oxo-1,4-dihydropyridines as selective CB2 cannabinoid receptor ligands: structural insights into the design of a novel inverse agonist series” (J Med Chem, 2010).

Experiment [1] deals with T1, Cannabinoid receptor 2 (Homo sapiens, UniProt P34972). Briefly: Agonist activity at human CB2 receptor expressed in CHO cells assessed as stimulation of [35S]-GTPgammaS binding relative to basal activity. Type of experiment: functional, cell-based.
For experiment [2], the target named is T1, Cannabinoid receptor 2. Nature of the experiment: Displacement of [3H]-CP55940 from human CB2 receptor expressed in CHO cells after 1 hr. It is filed as cell-based.
Experiment [3] has as its target T1, Cannabinoid receptor 2. Nature of the experiment: Agonist activity at human CB2 receptor expressed in CHO cells assessed as stimulation of [35S]-GTPgammaS binding. Type of experiment: functional, cell-based.
The target in experiment [4] is Cannabinoid receptor 1 (Homo sapiens, UniProt P21554). Briefly: Displacement of [3H]-SR141716A from human CB1 receptor expressed in CHO cells after 1 hr. Type of experiment: cell-based.

Molecules are shown by their SMILES.

Sequence of Cannabinoid receptor 1 (P21554 whole entry): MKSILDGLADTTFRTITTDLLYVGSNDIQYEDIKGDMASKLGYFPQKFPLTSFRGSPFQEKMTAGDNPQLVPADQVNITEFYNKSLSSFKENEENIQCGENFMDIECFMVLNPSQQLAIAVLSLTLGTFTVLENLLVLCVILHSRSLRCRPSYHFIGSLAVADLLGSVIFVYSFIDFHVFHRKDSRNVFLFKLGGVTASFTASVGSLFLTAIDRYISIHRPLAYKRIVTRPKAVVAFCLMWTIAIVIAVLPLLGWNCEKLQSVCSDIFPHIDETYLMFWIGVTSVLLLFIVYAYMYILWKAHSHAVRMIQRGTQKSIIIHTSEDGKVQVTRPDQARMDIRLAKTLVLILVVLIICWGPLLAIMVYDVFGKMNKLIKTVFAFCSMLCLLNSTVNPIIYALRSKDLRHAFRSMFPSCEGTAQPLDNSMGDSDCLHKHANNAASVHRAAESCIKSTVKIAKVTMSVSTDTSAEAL
T1 sequence (P34972 whole entry): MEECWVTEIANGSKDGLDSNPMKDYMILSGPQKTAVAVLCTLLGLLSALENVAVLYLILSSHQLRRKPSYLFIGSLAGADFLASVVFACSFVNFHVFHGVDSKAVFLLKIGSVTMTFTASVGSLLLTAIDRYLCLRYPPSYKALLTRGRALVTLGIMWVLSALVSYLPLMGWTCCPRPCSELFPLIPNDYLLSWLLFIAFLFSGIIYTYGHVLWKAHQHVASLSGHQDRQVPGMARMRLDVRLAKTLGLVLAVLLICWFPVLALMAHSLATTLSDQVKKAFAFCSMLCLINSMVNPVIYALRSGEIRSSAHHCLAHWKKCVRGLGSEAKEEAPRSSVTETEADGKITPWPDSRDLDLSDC

For the compound `CCCCCn1cc(C(=O)NC23CC4CC(CC(C4)C2)C3)c(=S)cc1-c1ccccc1`, in experiment [1], the maximum response (Emax) worked out at 30%. Further, the results for the Ki in experiment [2] and in experiment [4] were 18.8 nM and over 1000 nM, respectively. Besides, the concentration for a half-maximal effect (EC50) in experiment [3] worked out at 17 nM.
Turning to `CCCCCCn1cc(C(=O)NC23CC4CC(CC(C4)C2)C3)c(=O)cc1-c1ccccc1`, in experiment [4], the Ki was 596 nM.
Regarding `CCCCCn1cc(C(=O)NC(C)C23CC4CC(CC(C4)C2)C3)c(=O)cc1-c1ccccc1` (racemic), the maximal response (Emax) in experiment [1] is 46%. Further, the affinity in experiment [4] corresponds to a Ki of 368 nM.
In experiment [4], `CCCCCn1cc(C(=O)NC23CC4CC(CC(C4)C2)C3)c(=O)cc1-c1ccc(Cl)cc1` came in with a Ki of over 1000 nM.
`CCCCCn1cc(C(=O)NC2CCCCC2)c(=O)cc1-c1ccccc1`: in experiment [1], the Emax stood at 62%. Also, the affinity in experiment [4] corresponds to a Ki of 929 nM.
Take `CCCC(C)(C)c1ccc2c(c1)OC(C)(C)[C@@H]1CC=C(O)C[C@@H]21`: the maximal response (Emax) in experiment [1] was found to be 201%. In addition, in experiment [2], the affinity corresponds to a Ki of 20.3 nM. Moreover, the 50% effective concentration (EC50) in experiment [3] was 146 nM.
As to `CCCCCn1cc(C(=O)NC2CCCCC2)c(=O)cc1-c1ccc(Cl)cc1`, the Emax in experiment [1] stood at 39%. Besides, in experiment [4], the Ki was over 1000 nM.
`CC(NC(=O)c1cn(-c2ccccc2)c(-c2ccccc2)cc1=O)C12CC3CC(CC(C3)C1)C2` (racemic): the Ki in experiment [2] and in experiment [4] was over 3000 nM throughout.
Regarding `CCCCCn1cc(C(=O)NC23CC4CC(CC(C4)C2)C3)c(=O)cc1-c1cccc(Cl)c1`, the Ki is 1.8 nM in experiment [2] and 51.2 nM in experiment [4].
Taken in the same sequence, the figures for `CCCCCn1cc(C(=O)NC23CC4CC(CC(C4)C2)C3)c(=O)cc1-c1ccc(OC)cc1` were 91.1 nM and 384 nM.
Regarding `CCCCCn1cc(C(=O)NC23CC4CC(CC(C4)C2)C3)c(=O)cc1C(C)(C)C`, the Emax in experiment [1] is 212%. This compound displayed a Ki in experiment [4] of over 3000 nM.
For `CCCCCn1cc(C(=O)N[C@H]2CCCc3ccccc32)c(=O)cc1-c1ccccc1` the same measures were 48% and over 1000 nM.
Compound `CCn1cc(C(=O)NC(C)C23CC4CC(CC(C4)C2)C3)c(=O)cc1-c1ccccc1` (racemic) registered a Ki in experiment [4] of over 3000 nM.
Take `CCCCCn1cc(C(=O)NC23CC4CC(CC(C4)C2)C3)c(=O)cc1C`: the Emax in experiment [1] was 148%. In addition, the Ki in experiment [4] was over 3000 nM.
On to `CCCCCn1cc(C(=O)Nc2cccc(C(F)(F)F)c2)c(=O)cc1-c1ccccc1`, for which the Emax in experiment [1] came out at 42%. Also, the Ki in experiment [2] was 25.8 nM; in experiment [4], over 3000 nM. The 50% effective concentration (EC50) in experiment [3] was determined as 14 nM.
Turning to `CCCCCn1cc(C(=O)Nc2cccc(C(F)(F)F)c2)c(=O)cc1-c1ccc(Cl)cc1`, in experiment [1], the Emax turned out to be 42%. Further, the inhibition constant (Ki) in experiment [2] and in experiment [4] was over 1000 nM each time. In addition, in experiment [3], the EC50 was 158 nM.
Turning to `CCCCCn1cc(C(=O)NC2CCCCC2)c(=O)cc1C(C)(C)C`, the Ki in experiment [4] is over 3000 nM.
In experiment [4], `CCCCCn1cc(C(=O)NC23CC4CC(CC(C4)C2)C3)c(=O)cc1-c1ccccc1` came in with an inhibition constant (Ki) of 592 nM.
On the same count and under the same terms, as for `CCCCn1cc(C(=O)NC23CC4CC(CC(C4)C2)C3)c(=O)cc1-c1ccccc1`, the figure is over 1000 nM.
Take `CCCCCn1cc(NC(=O)OC(C)(C)C)c(=O)cc1-c1ccccc1`: the maximal effect (Emax) in experiment [1] was 26%. Besides, the Ki is 209 nM in experiment [2] and over 3000 nM in experiment [4]. Besides, the EC50 in experiment [3] was found to be 164 nM.
As to `CCCCCn1cc(C(=O)NC23CC4CC(CC(C4)C2)C3)c(=O)cc1-c1ccc(C)cc1`, the figures for the Ki in experiment [2] and in experiment [4] were 13.2 nM and 134 nM, respectively.
Regarding `CCCCCn1cc(C(=O)NCC23CC4CC(CC(C4)C2)C3)c(=O)cc1-c1ccccc1`, in experiment [4], the Ki is 626 nM.
Consider `CCCCCn1cc(C(=O)NC23CC4CC(CC(C4)C2)C3)c(=O)cc1-c1ccccc1Cl`, for which the inhibition constant Ki in experiment [2] is 0.7 nM; in experiment [4] it was 34.4 nM.
`CCCCCCC(C)(C)c1ccc([C@@H]2C[C@H](O)CC[C@H]2CCCO)c(O)c1`: in experiment [1], the maximum response (Emax) was found to be 230%.
With `CCCCCn1cc(C(=O)NC2CCCCC2)c(=S)cc1-c1ccccc1`, the Emax in experiment [1] came to 45%. Also, the Ki is 48 nM in experiment [2] and over 1000 nM in experiment [4]. In experiment [3], the concentration giving a half-maximal response (EC50) is 27 nM.
With `CCCCCn1cc(C(=O)NN2CCCCC2)c(=O)cc1-c1ccccc1`, the maximal effect (Emax) in experiment [1] was 48%. Besides, the inhibition constant (Ki) in experiment [4] is over 3000 nM.
Turning to `CCCCCn1cc(NC(=O)C2CCCCC2)c(=O)cc1-c1ccccc1`, the Emax in experiment [1] came to 43%. The inhibitory constant (Ki) in experiment [2] is 51 nM; in experiment [4] it was over 3000 nM. The EC50 in experiment [3] is 25 nM.
For `Cc1c(C(=O)c2cccc3ccccc23)c2cccc3c2n1[C@H](CN1CCOCC1)CO3`, in experiment [1], the maximal effect (Emax) was found to be 207%.
In the case of `CCCCCn1cc(C(=O)N[C@@H]2CCCc3ccccc32)c(=O)cc1-c1ccccc1`, in experiment [1], the maximal response (Emax) was 42%. Besides, the inhibition constant (Ki) in experiment [4] turned out to be 131 nM.
